Data taken from US11136583B2, “Methods and materials for treating cancer” (Mayo Foundation for Medical Education and Research, priority 2017, dated 2021).

Columns and labels:
UFL1 = experiment: Ufmylation level in U2OS cells by western blot with UFM1 antibody; format: cell-based
Experimental: FIG. 10. U2OS cells were treated with AZD6244 or GDC0623. 48 hours later, cell were harvested, lysed, and analyzed by western blot with the indicated antibodies.
(§1) U2OS cells were plated in 6 well plates, and MEK1 inhibitors (AZD6244 or GDC0623) were added to wells with 10 μM final concentration and incubated for 48 hours. AZD6244 was purchased from Selleckchem. In some cases, cells were also irradiated with IR (10 Gy IR for 30 minutes).
(§2) Cells were washed once with PBS and lysed with SDS lysis buffer. The samples were separated by SDS-PAGE following three washes with NETN buffer. Western blots were carried out following standard procedures.
To identify an inhibitor of UFL1 activity that induced a significant decrease of ufmylation, cells were treated with inhibitors and were analyzed by western blot using UFM1 antibody to detect the ufmylation level in the cells.

[1] = system: Protein kinase ataxia-telangiectasia mutated (ATM) signaling; experiment: ATM signaling in irradiated U2OS cells by western blot; format: cell-based; settings: U2OS cells pretreated 6 hours, then 10 Gy IR, harvested 30 minutes after IR (FIG. 11)
Experimental: FIG. 11. U2OS cells were pretreated with AZD6244. 6 hours later, cells were treated with 10 Gy IR. 30 minutes after ionizing radiation, cells were harvested, lysed, and analyzed by western blot with the indicated antibodies.
as §1, §2

SMILES: Cn1cnc2c(F)c(Nc3ccc(Br)cc3Cl)c(C(=O)NOCCO)cc21 [AZD6244, selumetinib]
- UFL1 inhibition (conclusion from ufmylation and ATM signaling western blots) (UFL1): inhibits UFL1
- ufmylation level in the cells (UFL1; 10 μM, 48 hours, western blot with UFM1 antibody (FIG. 10)): greatly suppressed
- ATM signaling [1]: greatly suppressed
